Measurements published in publication PMC9516332 (Frontiers in Oncology, 2022).
Read-outs that look alike come from different tables or passages of the source.

Tests used:
Assay in all cases: Kinase panel profiling at 1 µmol/L (MSA or IMAP), percentage inhibition
Type in all cases: biochemical
[1] = molecular target: panel of 255 wild-type kinases (Homo sapiens, UniProt P53350); conditions: read-out: %-inhibition at 1 µmol/L, PLK1
[2] = molecular target: panel of 255 wild-type kinases (Homo sapiens, UniProt P68400); conditions: read-out: %-inhibition at 1 µmol/L, CK2α1/β
[3] = molecular target: panel of 255 wild-type kinases (Homo sapiens, UniProt P51957); conditions: read-out: %-inhibition, NEK4
[4] = molecular target: panel of 255 wild-type kinases (Homo sapiens, UniProt Q8IY84); conditions: read-out: %-inhibition, NIM1K
[5] = molecular target: panel of 255 wild-type kinases (Homo sapiens, UniProt Q9Y6M4); conditions: read-out: %-inhibition at 1 µmol/L, CK1γ3
[6] = molecular target: panel of 255 wild-type kinases (Homo sapiens, UniProt P49840); conditions: read-out: %-inhibition at 1 µmol/L, GSK3α
[7] = molecular target: panel of 255 wild-type kinases (Homo sapiens, UniProt Q15759); conditions: read-out: %-inhibition, p38β
[8] = molecular target: T1, panel of 255 wild-type kinases (Homo sapiens, UniProt Q13188); conditions: read-out: %-inhibition, MST2
T1 sequence (Q13188 1-491): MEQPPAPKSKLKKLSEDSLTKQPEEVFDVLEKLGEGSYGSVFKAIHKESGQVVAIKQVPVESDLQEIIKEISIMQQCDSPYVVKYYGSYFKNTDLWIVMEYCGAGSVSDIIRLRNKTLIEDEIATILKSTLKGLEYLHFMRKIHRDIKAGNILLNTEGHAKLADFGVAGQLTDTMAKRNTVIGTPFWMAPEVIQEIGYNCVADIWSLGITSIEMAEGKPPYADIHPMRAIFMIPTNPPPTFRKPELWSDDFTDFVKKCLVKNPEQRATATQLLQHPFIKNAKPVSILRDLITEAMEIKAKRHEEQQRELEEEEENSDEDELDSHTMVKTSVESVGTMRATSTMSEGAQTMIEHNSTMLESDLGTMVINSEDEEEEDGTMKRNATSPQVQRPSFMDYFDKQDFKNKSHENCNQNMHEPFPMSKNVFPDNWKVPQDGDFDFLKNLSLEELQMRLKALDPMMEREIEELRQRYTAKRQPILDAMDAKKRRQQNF

[9] = molecular target: panel of 255 wild-type kinases (Homo sapiens, UniProt P45984); conditions: read-out: %-inhibition at 1 µmol/L, JNK2
[10] = molecular target: panel of 255 wild-type kinases (Homo sapiens, UniProt Q15208); conditions: read-out: %-inhibition, NDR1
[11] = molecular target: T2, panel of 255 wild-type kinases (Homo sapiens, UniProt Q16566); conditions: read-out: %-inhibition CaMK4
T2 sequence (Q16566 1-473): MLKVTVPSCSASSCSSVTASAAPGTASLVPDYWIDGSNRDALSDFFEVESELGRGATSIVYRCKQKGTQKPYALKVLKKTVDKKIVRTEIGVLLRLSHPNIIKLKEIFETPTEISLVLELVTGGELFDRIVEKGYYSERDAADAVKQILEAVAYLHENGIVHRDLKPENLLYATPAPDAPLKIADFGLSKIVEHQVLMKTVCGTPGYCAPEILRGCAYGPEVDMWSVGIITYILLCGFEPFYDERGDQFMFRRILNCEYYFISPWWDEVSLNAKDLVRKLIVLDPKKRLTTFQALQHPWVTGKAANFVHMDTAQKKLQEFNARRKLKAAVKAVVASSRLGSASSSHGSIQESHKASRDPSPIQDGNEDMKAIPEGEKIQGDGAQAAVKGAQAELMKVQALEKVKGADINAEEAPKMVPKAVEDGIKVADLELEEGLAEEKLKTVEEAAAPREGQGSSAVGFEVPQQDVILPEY

[12] = molecular target: panel of 255 wild-type kinases (Homo sapiens, UniProt P35968); conditions: read-out: %-inhibition at 1 µmol/L, KDR
[13] = molecular target: panel of 255 wild-type kinases (Homo sapiens, UniProt Q04912); conditions: read-out: %-inhibition at 1 µmol/L, RON
[14] = molecular target: T3, panel of 255 wild-type kinases (Homo sapiens, UniProt Q96BR1); conditions: read-out: %-inhibition at 1 µmol/L, SGK3
T3 sequence (Q96BR1 1-496): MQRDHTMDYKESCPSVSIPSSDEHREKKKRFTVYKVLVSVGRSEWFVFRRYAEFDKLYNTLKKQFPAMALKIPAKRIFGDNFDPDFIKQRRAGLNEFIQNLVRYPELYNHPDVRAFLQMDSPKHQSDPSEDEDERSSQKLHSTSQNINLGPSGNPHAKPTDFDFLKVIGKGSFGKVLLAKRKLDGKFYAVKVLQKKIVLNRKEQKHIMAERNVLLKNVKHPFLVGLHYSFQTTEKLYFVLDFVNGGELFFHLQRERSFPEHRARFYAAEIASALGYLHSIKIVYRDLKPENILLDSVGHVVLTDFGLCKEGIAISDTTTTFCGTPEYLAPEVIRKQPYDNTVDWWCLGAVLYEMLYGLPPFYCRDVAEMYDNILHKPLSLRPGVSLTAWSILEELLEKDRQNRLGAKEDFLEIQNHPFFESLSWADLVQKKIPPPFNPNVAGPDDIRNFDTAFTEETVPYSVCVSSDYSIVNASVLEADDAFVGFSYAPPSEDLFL

[15] = system: panel of 255 wild-type kinases
[16] = kinase PLK1, 1 µmol/L single concentration
[17] = kinase CK2α1/β, 1 µmol/L single concentration
[18] = NEK4, 1 µmol/L single concentration
[19] = NIM1K, 1 µmol/L single concentration
[20] = kinase CK1γ3, 1 µmol/L single concentration
[21] = kinase GSK3α, 1 µmol/L single concentration
[22] = p38β, 1 µmol/L single concentration
[23] = MST2, 1 µmol/L single concentration
[24] = kinase JNK2, 1 µmol/L single concentration
[25] = NDR1, 1 µmol/L single concentration
[26] = CaMK4 kinase assay, 1 µmol/L single concentration
[27] = kinase KDR, 1 µmol/L single concentration
[28] = kinase RON, 1 µmol/L single concentration
[29] = kinase SGK3, 1 µmol/L single concentration
[30] = kinase FYN [isoform b], 1 µmol/L single concentration
[31] = kinase LYNb, 1 µmol/L single concentration
[32] = kinase PKCβ2, 1 µmol/L single concentration
[33] = kinase SRM, 1 µmol/L single concentration

inhibition at 1 µM [12, 27] [%] | %-inhibition at 1 µmol/L, FYN [isoform b] [15, 30] [%] | %-inhibition at 1 µmol/L, LYNb [15, 31] [%] | %-inhibition at 1 µmol/L, PKCβ2 [15, 32] [%] | %-inhibition at 1 µmol/L, SRM [15, 33] [%] | SMILES | inhibition at 1 µM [1, 16] [%] | inhibition at 1 µM [2, 17] [%] | inhibition at 1 µM [3, 18] [%] | inhibition at 1 µM [4, 19] [%] | inhibition at 1 µM [5, 20] [%] | inhibition at 1 µM [6, 21] [%] | inhibition at 1 µM [7, 22] [%] | inhibition at 1 µM [8, 23] [%] | inhibition at 1 µM [9, 24] [%] | inhibition at 1 µM [10, 25] [%] | inhibition at 1 µM [11, 26] [%] | inhibition at 1 µM [13, 28] [%] | inhibition at 1 µM [14, 29] [%] | inhibition at 1 µM [12] [%] | other results
2.42 | -1.85 | 7 | -2 | -1.41 | Cn1cnc2c(F)c(Nc3ccc(Br)cc3Cl)c(C(=O)NOCCO)cc21 [selumetinib] | -4 | -5 | 3.45 | -0.385 | -1 | -1.06 | -1.71 | -2.14 | -2.13 | 0.227 | -2 | -1.28 | -4 |  | 
 | 10 | 52 | -1.06 | -1.55 | COc1ccc(CN2C3CC2CN(c2ccc(-c4cc(OCC(C)(C)O)cn5ncc(C#N)c45)cn2)C3)cn1 [selpercatinib] | -0.437 | -1.82 | 0.858 | -2 | 12 | 30 | -1.85 | 0.47 | -1.07 | -1.18 | -2.54 | 49 | -0.72 | 99 | number of the 255 profiled kinases inhibited by more than 50% ([15]; 1 µmol/L inhibitor): 46
6 | 1.64 | 1.48 | -2 | -3.2 | O=C(Nc1cnn2ccc(N3CCC[C@@H]3c3cc(F)ccc3F)nc12)N1CC[C@H](O)C1 [larotrectinib] | -1.17 | -2.37 | 0.695 | -1.85 | -0.832 | -6.65 | -0.0712 | 0.182 | -0.671 | -2.75 | 0.861 | 2.82 | -4.61 |  | kinases inhibited by more than 50% ([15]; 1 µmol/L inhibitor): TRKA, TRKB, TRKC, ROS1, and ACK1
 |  |  |  |  | CNC(=O)c1ccc(-c2cnc3ncc(Cc4ccc5ncccc5c4)n3n2)cc1F [capmatinib] |  |  |  |  |  |  |  |  |  |  |  |  |  | 4 | inhibition at 1 µM [1]: -5%; inhibition at 1 µM [2]: -3.18%; inhibition at 1 µM [3]: 2%; inhibition at 1 µM [4]: -2%; inhibition at 1 µM [5]: -1.65%; inhibition at 1 µM [6]: -0.492%; inhibition at 1 µM [7]: -2.57%; inhibition at 1 µM [8]: -3.3%; inhibition at 1 µM [9]: -0.668%; inhibition at 1 µM [10]: -0.897%; inhibition at 1 µM [11]: -2.8%; inhibition at 1 µM [13]: 13%; inhibition at 1 µM [14]: -2.49%; %-inhibition at 1 µmol/L, FYN [isoform b] [15]: -1.2%; %-inhibition at 1 µmol/L, LYNb [15]: 0.305%; %-inhibition at 1 µmol/L, PKCβ2 [15]: -2%; %-inhibition at 1 µmol/L, SRM [15]: -0.916%
 |  |  |  |  | CN1CCN(c2ccc(C(=O)Nc3n[nH]c4ccc(Cc5cc(F)cc(F)c5)cc34)c(NC3CCOCC3)c2)CC1 [entrectinib] | 0.212 | 1.84 | 1.25 | -1.5 | 0.879 | -0.424 | 7.47 | 35 | 7 | 49 | 1.07 | 33 | 0.413 |  | %-inhibition at 1 µmol/L, FYN [isoform b] [15]: 95%; %-inhibition at 1 µmol/L, LYNb [15]: 72%; %-inhibition at 1 µmol/L, PKCβ2 [15]: 14%; %-inhibition at 1 µmol/L, SRM [15]: 72%; number of the 255 profiled kinases inhibited by more than 50% [15]: 75

SMILES | inhibition at 1 µM [12, 27] [%] | %-inhibition at 1 µmol/L, FYN [isoform b] [15, 30] [%] | %-inhibition at 1 µmol/L, LYNb [15, 31] [%] | %-inhibition at 1 µmol/L, PKCβ2 [15, 32] [%] | %-inhibition at 1 µmol/L, SRM [15, 33] [%] | inhibition at 1 µM [1, 16] [%] | inhibition at 1 µM [2, 17] [%] | inhibition at 1 µM [3, 18] [%] | inhibition at 1 µM [4, 19] [%] | inhibition at 1 µM [5, 20] [%] | inhibition at 1 µM [6, 21] [%] | inhibition at 1 µM [7, 22] [%] | inhibition at 1 µM [8, 23] [%] | inhibition at 1 µM [9, 24] [%] | inhibition at 1 µM [10, 25] [%] | inhibition at 1 µM [11, 26] [%] | inhibition at 1 µM [13, 28] [%] | inhibition at 1 µM [14, 29] [%] | inhibition at 1 µM [12] [%] | other results
CCN1C(=O)N(c2c(F)c(OC)cc(OC)c2F)Cc2cnc3[nH]c(CN4CCOCC4)cc3c21 [pemigatinib] |  | 14 | 64 | -1.57 | -3.44 | -1.52 | -2.8 | 6.33 | -1.5 | -1.18 | -5.3 | 6 | 7 | 1.27 | -4.31 | 1.2 | 4.48 | -7 | 96 | 
FC(F)(F)c1ccc(CNc2ccc(Cc3c[nH]c4ncc(Cl)cc34)cn2)cn1 [pexidartinib] | 81 | 1.3 | 19 | 3.47 | 0.409 | 6.33 | 0.256 | 2.69 | -1.06 | -0.557 | 3 | 0.844 | 10 | 2.5 | 13 | 4 | 23 | -0.803 |  | 
